Assay results as given in patent US9952300B2, “Dynamic contrast enhanced MRI method and agents for the assessment of the macromolecular transport within pathologic tissues” (BRACCO IMAGING S.P.A., priority 2012, dated 2018).
Where “and” joins values, the source holds several entries; their conditions need not be identical. Identical values can stand only once.

Tests used:
Human Serum Albumin = Human Serum Albumin (Homo sapiens, UniProt P02768); conditions: literature; cited from earlier work
[1] = test system: PC-3 human prostate adenocarcinoma tumor; assay: DCE-MRI of contrast agent kinetics in PC-3 tumors of Axitinib- or vehicle-treated mice (Example 3); assay type: in vivo, NCR athymic nude mice; conditions: contrast agent 100 μmol/kg i.v., one value per animal
Source text: The comparative test has been performed using NCR athymic nude mice implanted with PC-3 cells (a human prostate cancer line) and treated with Axitinib®, a VEGFRs inhibitor, (to modulate the tumor vascular permeability) by a protocol which timing is for instance schematized in FIG. 1. Scope of the test was to compare the image-based analysis of the albumin distribution in a human tumor model as extracted from the analysis of a time-serie of MRI images (with spatial resolution of around 110 μm) acquired with the method of the invention after injection of B22956/1 as contrast agent, and the distribution of FITC-BSA (Fluorescent isothiocyanate Bovine Serum Albumin) albumin inside and outside vessels histologically determined from fluorescent microscopy images on a scale of microns.
In particular, the trans-endothelial permeability (K^Trans) and the fractional plasma volume (fPV) were calculated from dynamic MR data by application of a bi-compartmental pharmacokinetic model, while the Initial Area Under the Curve (IAUCT) was calculated in several time windows, typically comprised between the contrast agent administration and the end of the MRI acquisition. The macromolecular penetration in tumors was, then, probed by fluorescently labelled Bovine Serum Albumin administered via tail vein after the last MRI session. Microscopic images were used to quantify the percentage of area stained by fluorescent albumin in the tumor, as a measure of the blood vessel density, using an automatic thresholding method. The albumin extravasation in the tumor extravascular space was assessed based on the fluorescence found out of the blood vessels from histological samples taken from both of tumor rim and core, for instance as schematized in FIG. 2. In particular, the albumin florescence was averaged over all pixels at a given distance from the nearest vessel and stored as a function of distance from the vessels walls, by use of an optimized procedure, for instance schematized in FIG. 3, providing both a quantification of the availability of the albumin in the extravascular space of the concerned tumor, namely the amount of the extravasated FITC-Albumin, and the decay of its concentration over the distance x from a nearest vessel, or, in other words, its actual distribution and dilution within the extracellular spaces (for instance as schematized in FIG. 4).
Human prostate adenocarcinoma cells (PC-3) were supplied by ATCC (American Type Culture Collection) and grown in Hams F-12 medium supplemented with 10% foetal bovine serum, 2 mM glutamine, 100 IU/mL penicillin and 100 μg/mL streptomycin (all from Lonza, Verviers, Belgium). […] Tumour development was followed by palpation and measured by calliper every 2-3 days until the end of the experiment. […]

tumor tissues = conditions: literature (Maeda et al.); cited from earlier work

Human Serum Albumin, sequence (P02768 25-609): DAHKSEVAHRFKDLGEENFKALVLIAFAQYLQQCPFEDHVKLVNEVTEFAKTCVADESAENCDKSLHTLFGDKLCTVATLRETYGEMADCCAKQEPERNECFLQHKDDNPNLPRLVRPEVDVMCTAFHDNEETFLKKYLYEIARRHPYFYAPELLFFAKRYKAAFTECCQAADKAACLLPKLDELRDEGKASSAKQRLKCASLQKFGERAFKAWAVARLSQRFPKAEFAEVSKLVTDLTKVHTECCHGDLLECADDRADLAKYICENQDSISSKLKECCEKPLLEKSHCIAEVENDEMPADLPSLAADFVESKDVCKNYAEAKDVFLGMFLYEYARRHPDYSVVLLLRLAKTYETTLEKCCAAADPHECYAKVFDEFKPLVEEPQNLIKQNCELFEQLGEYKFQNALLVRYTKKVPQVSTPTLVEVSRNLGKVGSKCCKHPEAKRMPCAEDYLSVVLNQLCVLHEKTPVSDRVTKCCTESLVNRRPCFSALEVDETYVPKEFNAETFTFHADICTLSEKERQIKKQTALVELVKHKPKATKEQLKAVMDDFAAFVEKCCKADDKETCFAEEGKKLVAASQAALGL

O=C([O-])CN(CCN(CC(=O)[O-])C[C@H](COP(=O)([O-])OC1CCC(c2ccccc2)(c2ccccc2)CC1)N(CC(=O)[O-])CC(=O)[O-])CC(=O)[O-].[Gd+3].[H+].[H+].[H+] [Gadofosveset, reference compound]
non-covalent binding with Human Serum Albumin (Human Serum Albumin): about 90%

CNC[C@H](O)[C@@H](O)[C@H](O)[C@H](O)CO.CNC[C@H](O)[C@@H](O)[C@H](O)[C@H](O)CO.O=C([O-])CN(CCN(CC(=O)[O-])CC(=O)O)CCN(CC(=O)O)C(COCc1ccccc1)C(=O)[O-].[Gd+3] (stereo not shown) [MultiHance, reference compound]
kTrans (Transfer Constant) ([1]; tumor core): 3.63 mL\(min × g) × 100 and 1.02 mL\(min × g) × 100 and 2.86 mL\(min × g) × 100 and 3.57 mL\(min × g) × 100 and 2.54 mL\(min × g) × 100 and 1.53 mL\(min × g) × 100 and 0.82 mL\(min × g) × 100 and 3.15 mL\(min × g) × 100 and 4.46 mL\(min × g) × 100 and 1.08 mL\(min × g) × 100 and 1.63 mL\(min × g) × 100 and 3.19 mL\(min × g) × 100 and 2.6 mL\(min × g) × 100 and 4.07 mL\(min × g) × 100 and 1.06 mL\(min × g) × 100 | kTrans (Transfer Constant) ([1]; tumor rim): 8.14 mL\(min × g) × 100 and 3.59 mL\(min × g) × 100 and 3.81 mL\(min × g) × 100 and 4.51 mL\(min × g) × 100 and 4.22 mL\(min × g) × 100 and 4.44 mL\(min × g) × 100 and 3.23 mL\(min × g) × 100 and 4.78 mL\(min × g) × 100 and 6.14 mL\(min × g) × 100 and 1.74 mL\(min × g) × 100 and 5.23 mL\(min × g) × 100 (2×) and 5.82 mL\(min × g) × 100 and 3.76 mL\(min × g) × 100 and 2.88 mL\(min × g) × 100

B1: SMANCS (conjugate, UniProt P0A3R9 35-147, looked up)
Neocarzinostatin: AAPTATVTPSSGLSDGTVVKVAGAGLQAGTAYDVGQCAWVDTGVLACNPADFSSVTADANGSASTSLTVRRSFEGFLFDGTRWGTVDCTTAACQVGLSDAAGNGPEGVAISFN
modifications: styrene-maleic acid copolymer conjugate
spontaneous accumulation within tumor tissues versus normal tissues and organs (tumor tissues): up to 200 times
